Results: patent publication US20240239786A1, “COMPOSITIONS AND METHODS FOR THE TREATMENT AND PREVENTION OF CANCER” (Yale University, priority 2021, published 2024)

Key:
PEO4ip xenografts = experiment: Survival of mice bearing peritoneal PEO4ip xenografts; type: in vivo, SCID-Beige mice; settings: for effect on survival time of mice: olaparib 50 mg/kg, DB4 10 mg/kg, i.p. daily for 4 weeks
Procedure: SCID-Beige mice implanted ip with PEO4ip cells were treated daily (qd) with DB4 (10 mg/kg), olaparib (50 mg/kg), and the DB4-olaparib combination for 4 weeks. Kaplan Meier analysis was performed to determine the survival time of mice following treatments. Statistical significance was determined by the Mantel-Cox test comparing the control with each treatment group (N=4-5). […] DB4 given every two days (q2d) in the DB4-olaparib combination for 4 or 6 weeks (n=4-5). […] NOD CRISPR Prkdc Il2r Gamma (NCG) mice implanted sc with SKOV3 cells were treated as described in FIG. 10C for 4 weeks during which the tumor size was measured. Statistical significance was determined by the Wilcoxon matched-pairs signed test comparing the control with each treatment group and comparing between treatment groups. Data are means±SE (N=4-5). *, p<0.05; **, p<0.01.
First, the efficacy of the combination of DB4 and olaparib to treat PEO4ip tumor xenografts, as determined by the median survival time, was evaluated in a peritoneal mouse model (Lin Z P et al., 2018, PLOS One, 13:e0207399). Mice were implanted intraperitoneally (i.p.) with PEO4ip cells and then treated i.p. with olaparib, DB4, or both drugs in combination daily for 4 weeks. The survival endpoint (a 50% increase in abdominal circumference) for vehicle-treated control mice ranged from 55-65 days (8-9 weeks).
Next, these experiments were repeated with modified treatment schedules of DB4 given every two day (q2d) for 4-week and 6-week treatment periods.
Five to six weeks old female SCID-Beige mice were purchased from Envigo (Indianapolis, IN). PEO4ip cells (Lin Z P et al., 2018, PLOS One, 13:e0207399) suspended in 100 μL serum-free medium were implanted i.p. (1×10^7 cells per mouse). Six to eight weeks old female NCG (NOD-Prkdcem26Cd52Il2rgem26Cd22/NjuCrl) mice were purchased from Charles River (Wilmington, MA). SKOV3 cells suspended in 100 μL serum-free medium were mixed with 50 μL Matrigel (BD Biosciences) and implanted s.c. in the right dorsal medial area (1×10^7 cells per mouse). […] The abdominal circumference of PEO4ip-bearing mice reached a 50% increase about 50-70 days.
Mice were randomly assigned to treatment groups (n=4-5) and drug treatment was initiated 3-7 days after tumor implantation. The control group of mice received i.p. treatment with vehicle (2% DMSO) and treatment groups of mice received i.p. treatment for a period of 4 or 6 weeks as follows: Olaparib (50 mg/kg) once daily for 5 consecutive days per week; DB4 (10 mg/kg) once daily for 5 consecutive days (M, T, W, R, F) per week or once every 2 days (M, W, F) per week; The combined treatment with olaparib and DB4 at the dose and schedule described above.
The progression of PEO4ip tumor xenografts in mice was evaluated by measuring the size of the circumference at the lower one-third of the abdominal area with the mouse head positioned upward. A 50% increase in the abdominal circumference was defined as the endpoint of survival as described previously (Lin Z P et al., 2018, PLOS One, 13:e0207399). […] Kaplan-Meier survival curve, median survival time, and statistical analysis was performed using the Prism software (GraphPad). Comparisons were made by the Mantel-Cox test comparing the control with each treatment group. The growth of SKOV3 tumor xenografts was evaluated by the size of s.c. tumor using a digital caliper. Tumor volumes were calculated using the formula: length×width2/2. Statistical difference in the tumor size was determined by the Wilcoxon matched-pairs signed test comparing the control with each treatment group and comparing between treatment groups. Body weights of mice were measured on every treatment day before administration and on the same schedule as tumor measurements during the treatment period.

RNR = experiment: dNTP measurement (HIV-1 RT-based dNTP assay) in PEO4 cells; type: cell-based; settings: 50 μM DB4 or 1 μM triapine, 24 hr
Procedure: FIG. 2, comprising FIG. 2A through FIG. 2F, depicts representative results of follow-up assays of in silico hit compounds in PEO1 and PEO4 cells. FIG. 2A depicts representative results of cytotoxicity assays on selected 25 in silico hit compounds in PEO1 and PEO4 cells. Cells were plated for 24 hr and then treated with 50 μM compounds for 72 hr. For a positive control, cells were treated with 1 μM triapine for 72 hr. The percentage of cell survival was determined by the MTS cytotoxicity assay. […] Cells were treated with 50 μM compounds or 1 μM triapine for 24 hr. During the last hour, cells were pulse-labeled with EdU, stained with the Click-iT EdU Alexa Fluor 488 Assay Kit, counterstained with 7-AAD, and subsequently analyzed by flow cytometry. EdU-positive cells were gated to determine the percentage of the S phase cell population. […] During the last hour, cells were pulse-labeled with EdU, stained with the Click-iT EdU Alexa Fluor 488 Assay Kit, counterstained with 7-AAD, and subsequently analyzed by flow cytometry. […] The percentages of DNA synthesis in cells treated with each of 10 compounds and triapine relative to the DMSO-treated control is calculated and shown. […] Cells were extracted with 65% methanol for determination of each of dNTPs expressed as pmole/10^6 cells. […] The percentage of cell survival was determined by the MTS cytotoxicity assay. […]

[1] = Table 2: olaparib 50 mg/kg qd, DB4 10 mg/kg qd, i.p., treated daily
[2] = Table 3: single agents, olaparib 50 mg/kg qd, DB4 10 mg/kg q2d

SMILES | Median Survival Time (PEO4ip xenografts; [1]) [days] | Median Survival Time (PEO4ip xenografts; [2]) [days] | effect on survival time of mice (PEO4ip xenografts) | levels of dNTPs (RNR)
C=CCn1c(SCc2cccc(Cl)c2)nnc1C1CCN(Cc2nc3ccccc3s2)CC1 [DB4, 2-[(4-{4-allyl-5-[(3-chlorobenzyl)thio]-4H-1,2,4-triazol-3-yl}-1-piperidinyl)methyl]-1,3-benzothiazole] | 67 | 56 | no effects on the survival time of mice | significant decreases in the levels of dATP, dGTP, and dTTP
O=C(c1cc(Cc2n[nH]c(=O)c3ccccc23)ccc1F)N1CCN(C(=O)C2CC2)CC1 [olaparib, reference compound] | 66 | 55 | no effects on the survival time of mice | –
NC(=S)NN=Cc1ncccc1N [triapine, 3-aminopyridine-2-carboxaldehyde-thiosemicarbazone, reference compound] | – | – | – | significant and pronounced decreases in the levels of dATP and dGTP while causing a marked increase in dCTP and somewhat elevated dTTP
